One experiment relates to HCT116 cells. Kind of experiment: 96-well XTT cell survival assay (AurA XTT). The format is cell-based. The following applies: Homo sapiens, HCT-116, 72 hours. On the procedure: HCT116 cells were maintained in McCoy's 5a Medium supplemented with 10% fetal bovine serum (FBS) 2 mM L-Glutamine and 100 units penicillin/100 μg streptomycin, at 37° C. in 5% CO2
Compounds were tested in the following assays in duplicate.
96-well XTT assay: Cells were grown in growth media containing various concentrations of compounds (duplicates) on a 96-well flat bottom plate for 72 hours at 37° C. in 5% CO2. The starting cell number was 5000 cells per well and volume was 120 μl. At the end of the 72-hour incubation, 40 μl of XTT labeling mixture (50:1 solution of sodium 3′-[1-(phenylaminocarbonyl)-3,4-tetrazolium]-bis(4-methoxy-6-nitro) benzene sulfonic acid hydrate and Electron-coupling reagent: PMS (N-methyl dibenzopyrazine methyl sulfate) were added to each well of the plate. After an additional 2-6 hours […] with a spectrophotometer.
In general terms: Tetrazolium assays rely on reduction of a dye to a coloured formazan, in cell work by metabolically active cells.

The next experiment concerns the target T1, MET kinase (Homo sapiens, UniProt P08581).
T1 construct: expressing the kinase domain of human Met; 6x Histidine tag (cleaved yes); made in house; host or cells: Sf9 insect cells
In words: MET Luminescence-Based ATP Depletion Enzyme Assay. The experiment is classed as biochemical. The following applies: 10 μM ATP. On the procedure: MET Luminescence-Based ATP Depletion Enzyme Assay
Materials: Poly Glu-Tyr (4:1) substrate (Sigma Cat#P-0275), ATP (Sigma Cat#A-3377, FW=551), HEPES buffer, pH 7.5, Bovine serum albumin (BSA) (Roche 92423420), MgCl2, Staurosporine (Streptomyces sp. Sigma Cat#85660-1MG), white Costar 384-well flat-bottom plate (VWR Cat#29444-088). MET kinase (see below), Kinase-Glo™ (Promega Cat#V6712).
Stock Solutions: 10 mg/ml poly Glu-Tyr in water, stored at −20° C.; 100 mM HEPES buffer, pH 7.5 (5 ml 1M stock+45 ml miliQH2O); 10 mM ATP (5.51 mg/ml in dH2O) stored at −20° C. (diluted 50 μl into total of 10 ml miliQH2O daily=50 μM ATP working stock); 1% BSA (1 g BSA in 100 ml 0.1M HEPES, pH 7.5, stored at −20° C.), 100 mM MgCl2; 200 μM Staurosporine, 2× Kinase-Glo™ reagent (made fresh or stored at −20° C.).
Standard Assay Setup for 384-well format (20 μl kinase reaction, 40 μl detection reaction): 10 mM MgCl2; 0.3 mg/ml poly Glu-Tyr; 0.1% BSA; 1 μl test compound (in DMSO); 0.4 μg/ml MET kinase; 10 μM ATP; 100 mM HEPES buffer. Positive controls contained DMSO with no test compound. Negative controls contained 10 μM staurosporine. The kinase reactions were initiated at time t=0 by the addition of ATP. Kinase reactions were incubated at 21° C. for 60 min, then 20 μl of Kinase-Glo™ reagent were added to each well to quench the kinase reaction and initiate the luminescence reaction. After a 20 min incubation at 21° C., the luminescence was detected in a plate-reading luminometer.
The cell pellets produced from half of a 12 L Sf9 insect cell culture expressing the kinase domain of human Met were resuspended in a buffer containing 50 mM Tris-HCl pH 7.7 and 250 mM NaCl, in a volume of approximately 40 ml per 1 L of original culture. One tablet of Roche Complete, EDTA-free protease inhibitor cocktail (Cat#1873580) was added per 1 L of original culture. The suspension was stirred for 1 hour at 4° C. Debris was removed by centrifugation for 30 minutes at 39,800×g at 4° C. The supernatant was decanted into a 500 ml beaker and 10 ml of 50% slurry of Qiagen Ni-NTA Agarose (Cat#30250) that had been pre-equilibrated in 50 mM Tris-HCl pH 7.8, 50 mM NaCl, 10% Glycerol, 10 mM Imidazole, and 10 mM Methionine, were added and stirred for 30 minutes at 4° C. The sample was then poured into a drip column at 4° C. and washed with 10 column volumes of 50 mM Tris-HCl pH 7.8, 500 mM NaCl, 10% Glycerol, 10 mM Imidazole, and 10 mM Methionine. The protein was eluted using a step gradient with two column volumes each of the same buffer containing 50 mM, 200 mM, and 500 mM Imidazole, sequentially. The 6× Histidine tag was cleaved overnight using 40 units of TEV protease (Invitrogen Cat#10127017) per 1 mg of protein while dialyzing in 50 mM Tris-HCl pH 7.8, 500 mM NaCl, 10% Glycerol, 10 mM Imidazole, and 10 mM Methionine at 4° C. The 6× Histidine tag was removed by passing the sample over a Pharmacia 5 ml IMAC column (Cat#17-0409-01) charged with Nickel and equilibrated in 50 mM Tris-HCl pH 7.8, 500 mM NaCl, 10% Glycerol, 10 mM Imidazole, and 10 mM Methionine. The cleaved protein bound to the Nickel column at a low affinity and was eluted with a step gradient. The step gradient was run with 15% and then 80% of the B-side (A-side=50 mM Tris-HCl pH 7.8, 500 mM NaCl, 10% Glycerol, 10 mM Imidazole, and 10 mM Methionine; B-side=50 mM Tris-HCl pH 7.8, 500 mM NaCl, 10% Glycerol, 500 mM Imidazole, and 10 mM Methionine) for 4 column volumes each. The Met protein eluted in the first step (15%), whereas the non-cleaved Met and the cleaved Histidine tag eluted in the 80% fractions. The 15% fractions were pooled after SDS-PAGE gel analysis confirmed the presence of cleaved Met; further purification was done by gel filtration chromatography on an Amersham Biosciences HiLoad 16/60 Superdex 200 prep grade (Cat#17-1069-01) equilibrated in 50 mM Tris-HCl pH 8.5, 150 mM NaCl, 10% Glycerol and 5 mM DTT. […]

Structures are written as SMILES. Where only a bound is given, the exact number is not on record here.

What is called IC50 is the concentration at which inhibition is half-maximal. A lower IC50 goes with inhibition by little substance.

T1 sequence (P08581 1078-1345 limits assumed): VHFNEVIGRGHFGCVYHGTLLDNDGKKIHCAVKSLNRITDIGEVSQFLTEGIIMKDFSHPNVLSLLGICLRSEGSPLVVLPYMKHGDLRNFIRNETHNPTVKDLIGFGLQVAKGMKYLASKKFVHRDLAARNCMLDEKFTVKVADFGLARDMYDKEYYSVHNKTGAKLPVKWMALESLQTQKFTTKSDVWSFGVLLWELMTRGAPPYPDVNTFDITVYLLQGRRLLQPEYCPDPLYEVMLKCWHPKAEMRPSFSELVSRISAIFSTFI

Take `COc1ccc(Nc2nccc(-c3ccc(Br)s3)n2)cc1C(=O)N(C)C`: the IC50 with HCT116 cells and against MET kinase was 1000 to 5000 nM in each case.

Regarding `C[C@@H](NC(=O)c1ccc(-c2ccnc(Nc3cccc(CN4CCN(CCO)CC4)c3)n2)s1)c1ccccc1`, the IC50 with HCT116 cells and against MET kinase was under 1000 nM in each case.

For `C[C@@H](NC(=O)c1ccc(-c2ccnc(Nc3cccc(CN4CCC(O)CC4)c3)n2)s1)c1ccccc1`, the IC50 in the experiment with HCT116 cells and against MET kinase was under 1000 nM in each case.

Take `CCN(CCC#N)S(=O)(=O)c1ccc(-c2ccnc(Nc3cccc(C(C)O)c3)n2)s1` (stereo not shown): the IC50 was 1000 to 5000 nM in the experiment with HCT116 cells and under 1000 nM on MET kinase.

Take `CCC(=O)Nc1ccc(-c2ccnc(Nc3cccc(C)c3)n2)s1`: the IC50 with HCT116 cells and against MET kinase was 1000 to 5000 nM throughout.

At MET kinase, `CC(O)c1cccc(Nc2nccc(-c3ccc(S(=O)(=O)Cc4ccccc4)s3)n2)c1` (stereo not shown) came in with an IC50 of under 1000 nM.

For the molecule `CCN(CCC#N)C(=O)c1ccc(-c2ccnc(Nc3cccc(C(C)O)c3)n2)s1` (stereo not shown), the half-maximal inhibitory concentration (IC50) in the experiment on HCT116 cells was under 1000 nM.

`CC(O)c1cccc(Nc2nccc(-c3ccc(S(=O)(=O)N(C)C)s3)n2)c1` (stereo not shown): the 50% inhibitory concentration (IC50) with HCT116 cells and against MET kinase was 1000 to 5000 nM each time.

With `CCN(CCC#N)S(=O)(=O)c1ccc(-c2ccnc(Nc3cccc(C)c3)n2)s1`, the half-inhibitory concentration (IC50) with HCT116 cells is 1000 to 5000 nM; on MET kinase, under 1000 nM.

Molecule `COc1ccc(Nc2nccc(-c3ccc(Br)s3)n2)cc1OC` displayed an IC50 against MET kinase of 1000 to 5000 nM.

Turning to `CC(O)c1cccc(Nc2nccc(-c3ccc(-c4cccnc4)s3)n2)c1` (stereo not shown), the IC50 in the experiment on HCT116 cells and against MET kinase was 1000 to 5000 nM in each case.

Turning to `Brc1ccc(-c2ccnc(Nc3cccc(CN4CCOCC4)c3)n2)s1`, the half-inhibitory concentration (IC50) against MET kinase fell in the range of 1000 to 5000 nM.

Consider `O=C(NCc1ccccc1)c1ccc(-c2ccnc(Nc3ccc(CCO)cc3)n2)s1`, for which the IC50 in the experiment with HCT116 cells and against MET kinase was 1000 to 5000 nM in each case.

With `CN(Cc1ccccc1)C(=O)c1ccc(-c2ccnc(Nc3ccc(CCO)cc3)n2)s1`, the concentration for half-maximal inhibition (IC50) in the experiment with HCT116 cells lay in the range of 1000 to 5000 nM.

At MET kinase, `OC1CCN(Cc2cccc(Nc3nccc(-c4ccc(CNc5ccccc5Cl)s4)n3)c2)CC1` gave a half-maximal inhibitory concentration (IC50) of 1000 to 5000 nM.

In turn, `CCC1CCCCN1S(=O)(=O)c1ccc(-c2ccnc(Nc3cccc(C(C)O)c3)n2)s1` (stereo not shown) displayed an IC50 against MET kinase of under 1000 nM.

In the case of `O=C(c1cccc(Nc2nccc(-c3ccc(Br)s3)n2)c1)N1CCN(CCO)CC1`, the IC50 in the experiment with HCT116 cells and on MET kinase was 1000 to 5000 nM in each case.

At MET kinase, `CN(C)C(=O)c1cccc(Nc2nccc(-c3ccc(Br)s3)n2)c1` had a half-inhibitory concentration (IC50) of 1000 to 5000 nM.

Values taken from patent US7977481B2, “Pyrimidinyl-thiophene kinase modulators” (SGX Pharmaceuticals, Inc., priority 2005, dated 2011).
